# In paper PMC4975031, “A multifunctional GH39 glycoside hydrolase from the anaerobic gut fungus Orpinomyces sp. strain C1A” (PeerJ, 2016):
# Legend:
# Bgxg1 [1] = target: T1, Bgxg1 (Pecoramyces ruminantium, UniProt A0A0U3AYH9); test: p-nitrophenol release, Lineweaver-Burk; type: biochemical; conditions: pH 6.0, sodium acetate buffer, 39 °C; printed BDL (below detection limit, 500 nM)
# T1 construct: codon-optimised fragment, 939 bp [sic], nucleotide positions 67-1,035 of transcript m.21910 (signal peptide predicted in full-length product)
# Description: (§1) p-nitrophenol release, Lineweaver-Burk on Bgxg1
# [2] = tested on: T2, O=[N+]([O-])c1ccc(O[C@@H]2OC[C@@H](O)[C@H](O)[C@H]2O)cc1; test: p-nitrophenol release, Lineweaver-Burk; type: biochemical, Pecoramyces ruminantium; conditions: pH 6.0, sodium acetate buffer, 39 °C
# T2 construct: codon-optimised fragment, 939 bp [sic], nucleotide positions 67-1,035 of transcript m.21910 (signal peptide predicted in full-length product)
# Description: as §1
# Bgxg1 [3] = target: T1, Bgxg1; test: substrate competition: PNPG hydrolysis in presence of xylobiose; type: biochemical; conditions: read-out: Relative specific activity (%)
# Description: substrate competition: PNPG hydrolysis in presence of xylobiose on Bgxg1
# T1 sequence (A0A0U3AYH9 23-335 limits assumed): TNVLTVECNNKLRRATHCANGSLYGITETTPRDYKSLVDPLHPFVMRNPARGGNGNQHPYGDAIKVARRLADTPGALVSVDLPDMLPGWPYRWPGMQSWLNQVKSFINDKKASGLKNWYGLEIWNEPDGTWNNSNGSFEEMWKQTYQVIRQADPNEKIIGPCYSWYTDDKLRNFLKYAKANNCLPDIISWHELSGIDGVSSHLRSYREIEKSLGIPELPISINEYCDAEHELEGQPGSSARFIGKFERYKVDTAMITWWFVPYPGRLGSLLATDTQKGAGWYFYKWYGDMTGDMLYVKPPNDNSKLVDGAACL
compound,measurement,setting,value
"O=[N+]([O-])c1ccc(O[C@@H]2O[C@H](CO)[C@@H](O)[C@H](O)[C@H]2O)cc1 [PNPG, p-nitrophenyl-β-D-glucopyranoside]",Km,Bgxg1 [1],< 0.5 µM
Bgxg1 (Pecoramyces ruminantium),Km,[2],4.85 ± 0.62 µM
same,Vmax,[2],127 µmol/min/mg
OC1OC[C@@H](O[C@@H]2OC[C@@H](O)[C@H](O)[C@H]2O)[C@H](O)[C@H]1O (some centres unmarked) [xylobiose],activity at 20000 µM,Bgxg1 [3],57.2%
"O=[N+]([O-])c1ccc(O[C@@H]2O[C@H](CO)[C@H](O)[C@H](O)[C@H]2O)cc1 [PNPGal, p-nitrophenyl-β-D-galactopyranoside]",Km,Bgxg1 [1],< 0.5 µM
